Measurements from PMC10997755, “Discovery of a small-molecule inhibitor that traps Polθ on DNA and synergizes with PARP inhibitors” (Nature Communications, 2024).
In brackets after ≈: the same amount, converted by molar mass. Several values for one entry are separate records, joined by “and”; a condition that tells them apart may be missing. Equal entries are not always repeated.

What was measured:
DLD1 BRCA2 -/- cells = assay: Apoptosis assay (FITC active caspase-3); type: cell-based; design: FITC+ AVG / FITC- AVG: unit not given here; details: for % population FITC Caspase-3 Negative / % population FITC Caspase-3 Positive: bar matched by sums to 100; for FITC+ AVG / FITC- AVG: DLD1 BRCA2 null
Experimental: (§1) DLD1 BRCA2 -/-, DLD1 Parental cells were plated on six well plates and treated with RTX-161 1 day after plating. Medium was replaced every 2 days with RTX-161. Cells were harvested 6 days after plating for apoptosis assay using FITC active caspase-3 apoptosis kit (BD biosciences, catalog # 550480) according to manufacturer’s instructions and analyzed by FACS with Celesta (Becton Dickinson).

DLD1 Parental cells = assay: Apoptosis assay (FITC active caspase-3); type: cell-based; design: FITC- AVG / FITC+ AVG: unit not given here; details: for FITC+ AVG / FITC- AVG: DLD1 Parental
Experimental: as §1

[1] = system: Brca1^CC/CC;Polq^-/- cells; assay: Clonogenic assay; type: cell-based, mouse; details: for survival relative to 0 uM / survival relative to 0 uM, mean of the four experiments: cc POLQ KO; for survival relative to 0 uM: experiments 2023-04-07 and 2023-04-13; for survival relative to 0 uM, mean of the four experiments: last block without head (mean of 4)
Experimental: Cells were plated on six or twelve or twenty-four well plates. In six well plate, […], BRCA1 -/-, […]; In twelve well plate, […], BRCA1 -/-, PALB2 mut and 400 cells/ well of wildtype pair was plated; In twenty-four well plate, […], BRCA1 -/-, PALB2 mut and 300 cells/ well of wildtype pair was plated. […] The medium was replaced every 2 days until the colonies were ready for staining in 10–12 days. For staining: Medium was removed from plates, and cells were rinsed with PBS. Fixation was carried out with—Water: Ethanol: Acetic acid (5:4:1) for 30 min followed by staining of colonies with 0.5% crystal violet in Water: Ethanol (3:2) for 2 h at room temperature. The plates were rinsed with water and left for drying overnight at room temperature. Colonies were then counted and IC50 was calculated using results from 3 or more independent experiments. Response curves are shown as mean colony formation +/- S.E.M.

VC8 cells = assay: Clonogenic assay; type: cell-based, Chinese hamster; details: for percent suvival: VC8 cells
Experimental: Cells were plated on six or twelve or twenty-four well plates. In six well plate, 1000 cells/ well of BRCA2 -/-, BRCA1 -/-, PALB2 mut and 500 cells/ well of wildtype pair was plated; In twelve well plate, 600 cells/ well of BRCA2 -/-, BRCA1 -/-, PALB2 mut and 400 cells/ well of wildtype pair was plated; In twenty-four well plate, 500 cells/ well of BRCA2 -/-, BRCA1 -/-, PALB2 mut and 300 cells/ well of wildtype pair was plated. For MEFs, 300 cells per well in six-well plate were seeded. The medium was replaced every 2 days until the colonies were ready for staining in 10–12 days. For staining: Medium was removed from plates, and cells were rinsed with PBS. Fixation was carried out with—Water: Ethanol: Acetic acid (5:4:1) for 30 min followed by staining of colonies with 0.5% crystal violet in Water: Ethanol (3:2) for 2 h at room temperature. The plates were rinsed with water and left for drying overnight at room temperature. Colonies were then counted and IC50 was calculated using results from 3 or more independent experiments. Response curves are shown as mean colony formation +/- S.E.M.
Data are expressed as mean ± SEM from at least 3 independent experiments with triplicates for each condition unless stated otherwise. When conducting comparison between two groups, two-tailed unpaired t-test was used. Significance was assumed at p < 0.05. Asterisks in the figures indicate significance, ^∗p < 0.05, ^∗∗p < 0.01, ^∗∗∗p < 0.001. Combenefit® software version 2.021 was used to perform synergy analyses for drug combinations between RTx-161 and PARPi. GraphPad Prism 9 software was used to calculate IC50.

Polα = assay: Primer extension by recombinant Pols (selectivity); type: biochemical
[2] = Clonogenic assay, OLA with or without RTX-161 (Fig. 2 a; cell line not given); type: cell-based; details: OLA 0, single experiments, relative to vehicle
Solubility (2% DMSO/PBS) = type: physicochemical; details: aqueous buffer, kinetic from dmso stock
BRCA2-WT cells = assay: Clonogenic assay (number of colonies counted); type: cell-based; details: three replicates
[3] = Metabolic stability in liver microsomes; type: in vitro ADME; details: read-out: t1/2 liver microsomes
BRCA2-NULL cells = assay: Clonogenic assay (number of colonies counted); type: cell-based; details: three replicates
Description: Supplement 41467_2024_46593_MOESM7_ESM.xlsx, sheet "Supplem 1 b" | column: BRCA2-NULL

CN(C(=O)Oc1c(N2CCN(CCO)C2=O)cc(C(F)(F)F)cc1C(F)(F)F)c1ccc(F)cc1 [RTx-161]
% population FITC Caspase-3 Negative (DLD1 BRCA2 -/- cells; 10 uM RTX-161): 92%
% population FITC Caspase-3 Positive (DLD1 BRCA2 -/- cells; 10 uM RTX-161): 8%
% population FITC Caspase-3 Negative (DLD1 BRCA2 -/- cells; 20 uM RTX-161): 90%
% population FITC Caspase-3 Positive (DLD1 BRCA2 -/- cells; 20 uM RTX-161): 10%
FITC+ AVG (DLD1 BRCA2 -/- cells; 10 uM, left block of sheet): 8.433
FITC- AVG (DLD1 BRCA2 -/- cells; 10 uM, left block of sheet): 91.5667
FITC+ AVG (DLD1 BRCA2 -/- cells; 10 uM, middle block of sheet): 12.1
FITC- AVG (DLD1 BRCA2 -/- cells; 10 uM, middle block of sheet): 87.9
FITC+ AVG (DLD1 BRCA2 -/- cells; 10 uM, right block of sheet): 12.3333
FITC- AVG (DLD1 BRCA2 -/- cells; 10 uM, right block of sheet): 87.6667
FITC+ AVG (DLD1 BRCA2 -/- cells; 20 uM, left block of sheet): 9.633
FITC- AVG (DLD1 BRCA2 -/- cells; 20 uM, left block of sheet): 90.3667
FITC+ AVG (DLD1 BRCA2 -/- cells; 20 uM, middle block of sheet): 13.8333
FITC- AVG (DLD1 BRCA2 -/- cells; 20 uM, middle block of sheet): 86.1667
FITC+ AVG (DLD1 BRCA2 -/- cells; 20 uM, right block of sheet): 13.3333
FITC- AVG (DLD1 BRCA2 -/- cells; 20 uM, right block of sheet): 86.6667
apoptosis (DLD1 BRCA2 -/- cells; versus parental): selectively induced PARP cleavage and apoptosis
% population FITC Caspase-3 Negative (DLD1 Parental cells; 10 uM RTX-161): 99%
% population FITC Caspase-3 Negative (DLD1 Parental cells; 20 uM RTX-161): 99%
FITC+ AVG (DLD1 Parental cells; 10 uM, left block of sheet): 1.067
FITC- AVG (DLD1 Parental cells; 10 uM, left block of sheet): 98.9333
FITC+ AVG (DLD1 Parental cells; 10 uM, middle block of sheet): 2.067
FITC- AVG (DLD1 Parental cells; 10 uM, middle block of sheet): 98
FITC+ AVG (DLD1 Parental cells; 10 uM, right block of sheet): 2.033
FITC- AVG (DLD1 Parental cells; 10 uM, right block of sheet): 97.9667
FITC+ AVG (DLD1 Parental cells; 20 uM, left block of sheet): 0.9333
FITC- AVG (DLD1 Parental cells; 20 uM, left block of sheet): 99.0667
FITC+ AVG (DLD1 Parental cells; 20 uM, middle block of sheet): 1.467
FITC- AVG (DLD1 Parental cells; 20 uM, middle block of sheet): 98.6667
FITC+ AVG (DLD1 Parental cells; 20 uM, right block of sheet): 1.567
FITC- AVG (DLD1 Parental cells; 20 uM, right block of sheet): 98.7667
survival relative to 0 uM ([1]; 150 cells/well, RTx-161 1.25 uM): 105.26% and 120.00%
survival relative to 0 uM ([1]; 150 cells/well, RTx-161 2.5 uM): 73.68% and 115.00%
survival relative to 0 uM ([1]; 150 cells/well, RTx-161 5 uM): 89.47% and 105.00%
survival relative to 0 uM ([1]; 150 cells/well, RTx-161 10 uM): 94.74% and 95.00%
survival relative to 0 uM ([1]; 150 cells/well, RTx-161 20 uM): 73.68% and 90.00%
survival relative to 0 uM ([1]; 300 cells/well, RTx-161 1.25 uM): 106.67% and 94.44%
survival relative to 0 uM ([1]; 300 cells/well, RTx-161 2.5 uM): 83.33%
survival relative to 0 uM ([1]; 300 cells/well, RTx-161 5 uM): 83.33% and 86.11%
survival relative to 0 uM ([1]; 300 cells/well, RTx-161 10 uM): 86.67% and 94.44%
survival relative to 0 uM ([1]; 300 cells/well, RTx-161 20 uM): 80.00% and 83.33%
survival relative to 0 uM, mean of the four experiments ([1]; RTx-161 1.25 uM): 106.59%
survival relative to 0 uM, mean of the four experiments ([1]; RTx-161 2.5 uM): 88.84%
survival relative to 0 uM, mean of the four experiments ([1]; RTx-161 5 uM): 90.98%
survival relative to 0 uM, mean of the four experiments ([1]; RTx-161 10 uM): 92.71%
survival relative to 0 uM, mean of the four experiments ([1]; RTx-161 20 uM): 81.75%
sensitivity of Brca1^CC/CC;Polq^-/- cells ([1]; compared to Brca1^CC/CC cells): resistant
percent suvival (VC8 cells; RTX-161 1 micro M + ola 30.00 nano M): 0%
percent suvival (VC8 cells; RTX-161 1 micro M, ola 0.00 nano M): 79.4521% and 92.4444% and 101.498%
percent suvival (VC8 cells; RTX-161 3 micro M + ola 30.00 nano M): 0%
percent suvival (VC8 cells; RTX-161 3 micro M, ola 0.00 nano M): 62.3288% and 70.2222% and 85.0187%
combination with Olaparib (VC8 cells; clonogenic survival): significantly reduced cellular resistance to Olaparib
% Full Extension (Polα; Pol Alpha): 84.67%
% Inhibition Compared to Control (Polα; Pol Alpha): -1.20%
% Relative Maximum Extension (Polα; Pol Alpha): 101.20%
inhibition of primer extension (Polα; selectivity panel, Pol named in Supplementary Fig. 1h): no inhibition
percent suvival ([2]; RTX-161 0.5 micro M): 63.3333% and 80.7018% and 61.1842%
percent suvival ([2]; RTX-161 1 micro M): 55.8333% and 71.9298% and 46.0526%
percent suvival ([2]; RTX-161 2 micro M): 43.3333% and 23.3918% and 22.3684%

CN(C(=O)Oc1ccc(C(F)(F)F)cc1C(F)(F)F)c1ccc(F)cc1 [MC160385]
solubility (Solubility (2% DMSO/PBS)): 56 µM (≈ 21.3 µg/mL)
number of olonies counted (BRCA2-WT cells; MC160385 2.5 μM): 84 and 87 and 85
number of olonies counted (BRCA2-WT cells; MC160385 5 μM): 82 and 86 and 83
number of olonies counted (BRCA2-WT cells; MC160385 10 μM): 80 and 84 and 82
number of olonies counted (BRCA2-WT cells; MC160385 20 μM): 79 and 84 and 80
half-life [3]: 6.2 min
number of olonies counted (BRCA2-NULL cells; MC160385 2.5 μM): 67 and 60 and 64
number of olonies counted (BRCA2-NULL cells; MC160385 5 μM): 56 and 64 and 62
number of olonies counted (BRCA2-NULL cells; MC160385 10 μM): 57 and 62 and 60
number of olonies counted (BRCA2-NULL cells; MC160385 20 μM): 59 and 56 and 58
